Measured values as given in paper PMC7180948, “New Insights into 4-Anilinoquinazolines as Inhibitors of Cardiac Troponin I–Interacting Kinase (TNNi3K)” (Molecules, 2020).

Columns and labels:
Assay in all cases: biochemical
Design in all cases: KINOMEscan competition binding panel (Eurofins DiscoverX), single concentration, % inhibition
[1] = biological target: T1, RPS6KA4(Kin.Dom.1-N-terminal) (Homo sapiens, UniProt O75676); conditions: read-out: 7 at 1 µM % inhibition
T1 construct: Kin.Dom.1-N-terminal
Method in brief: (§1)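 KINOMEscan selectivity screen; >400 human kinases; compound at 1 µM, single concentration.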

DAPK1 = DAPK1 (Homo sapiens, UniProt P53355); conditions: read-out: 7 at 1 µM % inhibition
Method in brief: as §1

[2] = biological target: T2, RPS6KA5(Kin.Dom.1-N-terminal) (Homo sapiens, UniProt O75582); conditions: read-out: 7 at 1 µM % inhibition
T2 construct: Kin.Dom.1-N-terminal
Method in brief: as §1

PIK3CA(C420R) = PIK3CA(C420R) (Homo sapiens, UniProt P42336, C420R); conditions: read-out: 7 at 1 µM % inhibition
Method in brief: as §1

PRKG1 = PRKG1 (Homo sapiens, UniProt Q13976); conditions: read-out: 7 at 1 µM % inhibition
Method in brief: as §1

BMPR2 = BMPR2 (Homo sapiens, UniProt Q13873); conditions: read-out: 7 at 1 µM % inhibition
Method in brief: as §1

ROCK2 = ROCK2 (Homo sapiens, UniProt O75116); conditions: read-out: 7 at 1 µM % inhibition
Method in brief: as §1

CDK7 = CDK7 (Homo sapiens, UniProt P50613); conditions: read-out: 7 at 1 µM % inhibition
Method in brief: as §1

PIK3C2B = PIK3C2B (Homo sapiens, UniProt O00750); conditions: read-out: 7 at 1 µM % inhibition
Method in brief: as §1

RIPK1 = RIPK1 (Homo sapiens, UniProt Q13546); conditions: read-out: 7 at 1 µM % inhibition
Method in brief: as §1

PIP5K1C = PIP5K1C (Homo sapiens, UniProt O60331); conditions: read-out: 7 at 1 µM % inhibition
Method in brief: as §1

CDK4-cyclinD3 = biological target: T3, CDK4-cyclinD3 (Homo sapiens, UniProt P11802); conditions: read-out: 7 at 1 µM % inhibition
T3 construct: cyclinD3
Method in brief: as §1

[3] = biological target: T4, RSK2(Kin.Dom.1-N-terminal) (Homo sapiens, UniProt P51812); conditions: read-out: 7 at 1 µM % inhibition
T4 construct: gene RPS6KA3; Kin.Dom.1-N-terminal
Method in brief: as §1

ABL2 = ABL2 (Homo sapiens, UniProt P42684); conditions: read-out: 7 at 1 µM % inhibition
Method in brief: as §1

ADCK3 = biological target: T5, ADCK3 (Homo sapiens, UniProt Q8NI60); conditions: read-out: 7 at 1 µM % inhibition
T5 construct: gene COQ8A
Method in brief: as §1

[4] = biological target: T6, ABL1(F317I)-nonphosphorylated (Homo sapiens, UniProt P00519, F317I); conditions: read-out: 7 at 1 µM % inhibition
T6 construct: nonphosphorylated
Method in brief: as §1

MARK1 = MARK1 (Homo sapiens, UniProt Q9P0L2); conditions: read-out: 7 at 1 µM % inhibition
Method in brief: as §1

BMPR1A = BMPR1A (Homo sapiens, UniProt P36894); conditions: read-out: 7 at 1 µM % inhibition
Method in brief: as §1

MAST1 = MAST1 (Homo sapiens, UniProt Q9Y2H9); conditions: read-out: 7 at 1 µM % inhibition
Method in brief: as §1

CDK2 = CDK2 (Homo sapiens, UniProt P24941); conditions: read-out: 7 at 1 µM % inhibition
Method in brief: as §1

CHEK1 = CHEK1 (Homo sapiens, UniProt O14757); conditions: read-out: 7 at 1 µM % inhibition
Method in brief: as §1

KIT(D816V) = KIT(D816V) (Homo sapiens, UniProt P10721, D816V); conditions: read-out: 7 at 1 µM % inhibition
Method in brief: as §1

PFCDPK1(P.falciparum) = biological target: T7, PFCDPK1(P.falciparum) (Plasmodium falciparum, UniProt P62344); conditions: read-out: 7 at 1 µM % inhibition (pathogen kinases)
T7 construct: gene CDPK1
Method in brief: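 Values come from single-concentration (1 µM) profiling in the Eurofins DiscoverX KINOMEscan competition-binding platform, which covers over 400 kinases.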

Chain of MAST1 (Q9Y2H9 whole entry): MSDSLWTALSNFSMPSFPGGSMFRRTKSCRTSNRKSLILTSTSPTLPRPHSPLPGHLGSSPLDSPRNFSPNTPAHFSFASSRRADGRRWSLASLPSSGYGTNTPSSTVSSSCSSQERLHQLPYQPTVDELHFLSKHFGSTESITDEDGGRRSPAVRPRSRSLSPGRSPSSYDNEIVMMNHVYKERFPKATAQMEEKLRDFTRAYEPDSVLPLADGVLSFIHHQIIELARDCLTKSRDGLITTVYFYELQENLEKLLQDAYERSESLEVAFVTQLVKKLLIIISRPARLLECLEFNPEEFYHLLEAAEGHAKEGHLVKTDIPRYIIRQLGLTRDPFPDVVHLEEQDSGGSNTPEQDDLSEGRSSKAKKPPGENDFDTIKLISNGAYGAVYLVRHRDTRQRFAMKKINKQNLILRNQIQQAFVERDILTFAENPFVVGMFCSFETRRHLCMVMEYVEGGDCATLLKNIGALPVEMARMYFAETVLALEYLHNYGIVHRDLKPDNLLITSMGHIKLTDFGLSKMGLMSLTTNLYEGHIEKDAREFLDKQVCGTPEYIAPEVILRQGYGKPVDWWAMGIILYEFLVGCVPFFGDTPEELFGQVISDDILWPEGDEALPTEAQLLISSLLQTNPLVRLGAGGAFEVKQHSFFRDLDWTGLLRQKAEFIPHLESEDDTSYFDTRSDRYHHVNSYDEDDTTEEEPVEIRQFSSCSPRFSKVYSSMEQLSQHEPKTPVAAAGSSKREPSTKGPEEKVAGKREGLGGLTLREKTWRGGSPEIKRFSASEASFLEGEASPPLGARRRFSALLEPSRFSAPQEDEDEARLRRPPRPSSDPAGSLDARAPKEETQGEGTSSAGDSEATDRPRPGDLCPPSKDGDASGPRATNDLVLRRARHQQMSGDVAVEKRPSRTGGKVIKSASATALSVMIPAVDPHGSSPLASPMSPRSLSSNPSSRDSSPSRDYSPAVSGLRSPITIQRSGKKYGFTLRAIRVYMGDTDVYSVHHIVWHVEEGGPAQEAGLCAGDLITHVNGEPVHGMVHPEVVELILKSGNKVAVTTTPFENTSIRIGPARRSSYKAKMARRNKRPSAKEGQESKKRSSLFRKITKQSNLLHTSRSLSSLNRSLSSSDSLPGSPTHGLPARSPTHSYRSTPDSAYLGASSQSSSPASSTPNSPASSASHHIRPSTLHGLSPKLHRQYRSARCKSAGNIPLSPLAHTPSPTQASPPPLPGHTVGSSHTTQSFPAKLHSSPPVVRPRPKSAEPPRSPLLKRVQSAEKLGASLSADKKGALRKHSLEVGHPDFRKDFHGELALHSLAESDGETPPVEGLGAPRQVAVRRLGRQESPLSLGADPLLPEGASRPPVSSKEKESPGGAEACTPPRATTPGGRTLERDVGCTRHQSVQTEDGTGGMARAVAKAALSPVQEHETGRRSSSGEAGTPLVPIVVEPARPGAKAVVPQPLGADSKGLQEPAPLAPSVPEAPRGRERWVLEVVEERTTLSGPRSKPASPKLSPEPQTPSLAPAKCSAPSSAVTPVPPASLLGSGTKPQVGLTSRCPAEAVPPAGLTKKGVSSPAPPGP
Chain of ROCK2 (O75116 whole entry): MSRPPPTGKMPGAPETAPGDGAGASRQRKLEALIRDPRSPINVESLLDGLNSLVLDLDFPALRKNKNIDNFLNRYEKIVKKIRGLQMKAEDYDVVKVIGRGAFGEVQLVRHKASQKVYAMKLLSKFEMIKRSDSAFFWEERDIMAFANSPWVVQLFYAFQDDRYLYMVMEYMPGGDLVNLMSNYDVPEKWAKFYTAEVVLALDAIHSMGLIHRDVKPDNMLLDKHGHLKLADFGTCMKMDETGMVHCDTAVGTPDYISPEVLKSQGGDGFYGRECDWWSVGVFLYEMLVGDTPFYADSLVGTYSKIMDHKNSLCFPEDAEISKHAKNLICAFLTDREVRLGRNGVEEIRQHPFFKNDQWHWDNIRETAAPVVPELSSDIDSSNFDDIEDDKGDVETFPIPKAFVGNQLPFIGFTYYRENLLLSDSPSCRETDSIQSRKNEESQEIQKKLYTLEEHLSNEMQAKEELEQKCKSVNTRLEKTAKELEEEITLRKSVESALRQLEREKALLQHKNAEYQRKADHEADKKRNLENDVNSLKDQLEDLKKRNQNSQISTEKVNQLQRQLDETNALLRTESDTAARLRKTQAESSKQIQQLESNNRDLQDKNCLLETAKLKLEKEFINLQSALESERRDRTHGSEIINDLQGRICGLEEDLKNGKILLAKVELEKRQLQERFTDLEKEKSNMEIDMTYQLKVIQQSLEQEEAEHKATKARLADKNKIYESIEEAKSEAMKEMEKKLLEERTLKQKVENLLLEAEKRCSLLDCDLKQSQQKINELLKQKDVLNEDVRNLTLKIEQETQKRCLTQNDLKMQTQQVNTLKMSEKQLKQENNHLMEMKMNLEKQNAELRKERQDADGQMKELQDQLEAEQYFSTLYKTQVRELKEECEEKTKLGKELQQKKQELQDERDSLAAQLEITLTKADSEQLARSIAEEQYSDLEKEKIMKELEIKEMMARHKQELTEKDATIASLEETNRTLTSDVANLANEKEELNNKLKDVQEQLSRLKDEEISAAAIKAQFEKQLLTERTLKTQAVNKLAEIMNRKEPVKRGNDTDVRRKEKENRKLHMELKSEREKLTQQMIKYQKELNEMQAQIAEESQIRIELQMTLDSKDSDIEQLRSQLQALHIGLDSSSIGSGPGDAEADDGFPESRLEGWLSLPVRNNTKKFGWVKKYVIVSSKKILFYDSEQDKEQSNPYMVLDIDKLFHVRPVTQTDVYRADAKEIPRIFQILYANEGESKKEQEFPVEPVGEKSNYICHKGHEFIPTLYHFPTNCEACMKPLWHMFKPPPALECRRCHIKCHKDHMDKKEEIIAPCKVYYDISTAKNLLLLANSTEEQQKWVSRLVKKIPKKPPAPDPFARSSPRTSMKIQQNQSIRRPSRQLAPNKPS
T7 sequence (P62344 whole entry): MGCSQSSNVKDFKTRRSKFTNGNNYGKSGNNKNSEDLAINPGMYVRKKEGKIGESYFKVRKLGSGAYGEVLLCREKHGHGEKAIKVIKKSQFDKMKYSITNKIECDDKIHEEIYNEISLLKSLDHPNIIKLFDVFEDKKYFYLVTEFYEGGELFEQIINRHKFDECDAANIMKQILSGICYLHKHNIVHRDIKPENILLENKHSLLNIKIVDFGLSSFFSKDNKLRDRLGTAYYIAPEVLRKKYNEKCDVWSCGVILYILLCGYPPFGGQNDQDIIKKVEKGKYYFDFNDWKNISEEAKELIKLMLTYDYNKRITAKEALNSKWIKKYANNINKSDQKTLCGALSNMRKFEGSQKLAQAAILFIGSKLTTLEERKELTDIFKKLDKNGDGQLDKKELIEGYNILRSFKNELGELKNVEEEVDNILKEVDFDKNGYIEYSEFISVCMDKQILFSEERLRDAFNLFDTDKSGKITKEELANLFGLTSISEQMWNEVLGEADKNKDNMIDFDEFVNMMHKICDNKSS
Chain of BMPR2 (Q13873 whole entry): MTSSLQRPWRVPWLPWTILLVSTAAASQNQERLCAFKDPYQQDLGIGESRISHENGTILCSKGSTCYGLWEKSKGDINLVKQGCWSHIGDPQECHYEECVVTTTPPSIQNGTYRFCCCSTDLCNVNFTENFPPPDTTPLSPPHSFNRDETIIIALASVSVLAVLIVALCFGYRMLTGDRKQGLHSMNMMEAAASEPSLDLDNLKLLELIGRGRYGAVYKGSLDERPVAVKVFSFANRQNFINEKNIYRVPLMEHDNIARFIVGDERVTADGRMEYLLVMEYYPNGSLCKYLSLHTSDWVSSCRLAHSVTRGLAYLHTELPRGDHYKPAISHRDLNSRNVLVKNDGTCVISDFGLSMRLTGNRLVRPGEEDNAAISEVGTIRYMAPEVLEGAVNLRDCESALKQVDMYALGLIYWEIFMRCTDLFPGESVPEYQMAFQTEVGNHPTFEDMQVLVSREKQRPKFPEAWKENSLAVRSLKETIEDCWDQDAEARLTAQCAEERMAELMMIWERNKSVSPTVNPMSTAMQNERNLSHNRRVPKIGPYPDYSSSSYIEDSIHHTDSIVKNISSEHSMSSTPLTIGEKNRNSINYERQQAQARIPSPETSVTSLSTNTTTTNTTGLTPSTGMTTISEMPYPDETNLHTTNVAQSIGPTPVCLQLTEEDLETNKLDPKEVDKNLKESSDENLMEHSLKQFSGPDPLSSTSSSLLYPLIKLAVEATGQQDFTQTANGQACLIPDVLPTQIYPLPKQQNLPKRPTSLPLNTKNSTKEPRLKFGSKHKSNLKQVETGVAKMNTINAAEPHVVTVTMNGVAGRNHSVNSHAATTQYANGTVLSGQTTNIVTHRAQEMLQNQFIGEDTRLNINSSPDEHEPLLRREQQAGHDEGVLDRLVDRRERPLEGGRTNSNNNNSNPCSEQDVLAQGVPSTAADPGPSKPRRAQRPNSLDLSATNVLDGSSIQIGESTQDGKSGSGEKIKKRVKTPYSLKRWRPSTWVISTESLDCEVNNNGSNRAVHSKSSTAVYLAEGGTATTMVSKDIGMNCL
Chain of CHEK1 (O14757 whole entry): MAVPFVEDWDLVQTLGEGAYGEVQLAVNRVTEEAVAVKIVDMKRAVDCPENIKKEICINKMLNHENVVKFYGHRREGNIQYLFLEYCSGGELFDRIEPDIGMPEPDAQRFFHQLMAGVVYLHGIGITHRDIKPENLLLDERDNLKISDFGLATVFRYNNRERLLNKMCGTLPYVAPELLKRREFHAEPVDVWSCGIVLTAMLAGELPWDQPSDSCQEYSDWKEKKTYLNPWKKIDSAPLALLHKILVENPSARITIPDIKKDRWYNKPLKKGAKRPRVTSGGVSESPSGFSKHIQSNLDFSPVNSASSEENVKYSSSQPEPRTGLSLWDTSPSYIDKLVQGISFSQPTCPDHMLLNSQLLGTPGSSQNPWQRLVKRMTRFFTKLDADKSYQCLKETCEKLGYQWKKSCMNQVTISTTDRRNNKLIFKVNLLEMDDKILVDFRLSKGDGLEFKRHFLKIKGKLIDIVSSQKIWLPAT

**Q.** Which inhibition at 1 µM [1] does the source give for `CNS(=O)(=O)c1ccc(N(C)C)c(Nc2ncnc3cc(OC)c(OC)cc23)c1` [compound 7, 3-((6,7-dimethoxyquinazolin-4-yl)amino)-4-(dimethylamino)-N-methylbenzenesulfonamide] here?
**A.** 4%

**Q.** And the inhibition at 1 µM (DAPK1)?
**A.** 0%

**Q.** And the inhibition at 1 µM [2]?
**A.** 7%

**Q.** And the inhibition at 1 µM (PIK3CA(C420R))?
**A.** 5%

**Q.** What about the inhibition at 1 µM (PRKG1) of the same compound?
**A.** 0%

**Q.** What about the inhibition at 1 µM (BMPR2) of the same compound?
**A.** 0%

**Q.** What about the inhibition at 1 µM (ROCK2) of the same compound?
**A.** 0%

**Q.** What about the inhibition at 1 µM (CDK7) of the same compound?
**A.** 6%

**Q.** And the inhibition at 1 µM (PIK3C2B)?
**A.** 77%

**Q.** What about the inhibition at 1 µM (RIPK1) of the same compound?
**A.** 0%

**Q.** What about the inhibition at 1 µM (PIP5K1C) of the same compound?
**A.** 33%

**Q.** What about the inhibition at 1 µM (CDK4-cyclinD3) of the same compound?
**A.** 37%

**Q.** What about the inhibition at 1 µM [3] of the same compound?
**A.** 13%

**Q.** What about the inhibition at 1 µM (ABL2) of the same compound?
**A.** 0%

**Q.** And the inhibition at 1 µM (ADCK3)?
**A.** 50%

**Q.** And the inhibition at 1 µM [4]?
**A.** 1%

**Q.** And the inhibition at 1 µM (MARK1)?
**A.** 7%

**Q.** What about the inhibition at 1 µM (BMPR1A) of the same compound?
**A.** 0%

**Q.** What about the inhibition at 1 µM (MAST1) of the same compound?
**A.** 10%

**Q.** And the inhibition at 1 µM (CDK2)?
**A.** 0%

**Q.** What about the inhibition at 1 µM (CHEK1) of the same compound?
**A.** 0%

**Q.** What about the inhibition at 1 µM (KIT(D816V)) of the same compound?
**A.** 91.7%

**Q.** And the inhibition at 1 µM (PFCDPK1(P.falciparum))?
**A.** 96.3%
